Ends that are not written are not given here.
Columns and labels:
Rhopr-CT/DH-R1-B = test: Bioluminescence (calcium mobilization) assay, HEK293/CNG cells expressing Rhopr-CT/DH-R1-B; format: cell-based, R. prolixus; conditions: luminescence
From the text: (§1) The largest cDNA fragments encoding Rhopr-CT/DH-R1 transcript variants and Rhopr-CT/DH-R2-B were amplified as described earlier (see section: Isolation of cDNA sequences encoding R. prolixus CT/DH receptors). The PCR products from these reactions were used as a template to amplify the ORF and introduce a Kozak translation initiation sequence at the 5´ end using the primers listed in Table S5 in File S1. The resulting products were cloned into pGEM-T Easy vector (Promega, Madison, WI, USA). These were then subcloned into either pIRES2-ZsGreen1 (Clontech, Mountain View, CA, USA) or pcDNA 3.1^+ (Life Technologies Corporation, Carlsbad, CA, USA) for expression in mammalian cells.
(§2) Human embryonic kidney (HEK)-293 cells stably expressing a modified cyclic nucleotide-gated (CNG) channel (HEK293/CNG) (previously available through BD Biosciences, Mississauga, ON, Canada) were used to functionally characterize the receptors. […]
(§3) Bioluminescence assay using CHO/G16 cells was performed as described previously. […] Cells were loaded in each well using an automated injector and the luminescence recorded over 20 seconds using a Wallac Victor2 plate reader (Perkin Elmer, San Diego, CA, USA). […] Dose-response curves were obtained and the EC50 values determined using Prism5 software.

Rhopr-CT/DH-R1-C = test: Bioluminescence (calcium mobilization) assay, HEK293/CNG cells expressing Rhopr-CT/DH-R1-C; format: cell-based, R. prolixus; conditions: luminescence
From the text: as §1, §2, §3

Rhopr-CT/DH-R2-B = test: Bioluminescence (calcium mobilization) assay, HEK293/CNG cells expressing Rhopr-CT/DH-R2-B; format: cell-based, R. prolixus; conditions: luminescence
From the text: as §1, §2, §3

Malpighian tubules = conditions: reference stimulant; cited from earlier work

Row | Compound | receptor activation (Rhopr-CT/DH-R1-B) | receptor activation (Rhopr-CT/DH-R1-C) | receptor activation (Rhopr-CT/DH-R2-B) | rate of fluid secretion by MTs (Malpighian tubules)
1 | MQRPQGPSLSVANPIEVLRSRLLLEIARRRMKEQDASRVSKNRQYLQQI-NH2 [Rhopr-CRF/DH, R. prolixus corticotropin releasing-factor (CRF)-related diuretic hormone, custom synthesised by GenScript at > 95% purity] | None of these receptors were activated | None of these receptors were activated | None of these receptors were activated | maximum rate
2 | NSELINSLLSLPKNMNDA-NH2 [Drome-PDF, D. melanogaster pigment dispersing factor, custom synthesized by GeneMed Synthesis at > 95% purity] | None of these receptors were activated | None of these receptors were activated | None of these receptors were activated | 
3 | NCCc1c[nH]c2ccc(O)cc12 [serotonin] |  |  |  | maximum rate

From article PMC3843727, “Isolation and Functional Characterization of Calcitonin-Like Diuretic Hormone Receptors in Rhodnius prolixus” (PLoS ONE, 2013)
